The values below come from patent US20210347813A1, “COMPOUNDS WITH HIV MATURATION INHIBITORY ACTIVITY” (priority 2018, published 2021).

A short description of data set [1]: Rat PK after single intramuscular (IM) administration of prodrugs, parent MI #1 measured in plasma. The note with it: male SD rats, IM 20 mg/kg. It is filed as in vivo. Further details: unit not given here. An excerpt:
FIG. 2 is a concentration vs time curve of the plasma concentrations of parent MI #1 following a single Intramuscular (IM) administration of the Prodrugs and parent MI #1 to male SD rats. […] Additional pharmacokinetic data collected from the same experiments summarized in FIG. 2 is contained in the table below.
Animal strain: Sprague Dawley (SD) rat, purchased from Shanghai SLAC Laboratory Animal Co., Ltd. Sex: male; Age: 6-8 weeks; BW: 200-250 g, N=30 rats (N=3 per prodrug); Food status: Free access to food and water for the entire in-life phase.
Dose: 20 mg/kg (2 mL/kg, 10 mg/mL), IM injection; Formulation: 1% Kolliphor P188+4.5% Mannitol+94.5% Milli-Q Water;
N=3 rats/time point for each compound via IM administration
Sampling at 0.5, 1, 3, 5 and 7 hr, 1, 2, 3, 4, 5, 6 and 7 days post dose then 2×/week for a total of 8 weeks, 12*8 time points, serial bleeding for plasma only.
* Weekly interim analysis of the plasma samples (12 time points) to get an early read on the PK of the construct Blood collection and processing: The animal was restrained manually and approximately 150 μL blood per time point was collected in tubes containing K2EDTA anticoagulant. The sample was centrifuged at 2200 g for 10 min at 2-8° C. for plasma. The plasma samples were stored immediately at −70° C.
LC-MS/MS method was developed to quantitate both prodrugs and parent in plasma. The samples were analyzed in duplicate. Two sets of standard curves and three levels of QCs were run in each plate. Both the standards and QCs were run in duplicate.
WinNonlin V 6.4 statistics software (Pharsight Corporation, California, USA) was used to generate pharmacokinetics parameters (Tmax, Cmax, T1/2, AUC, MRT etc).

A short description of data set [2]: Mouse PK after subcutaneous (SQ) suspension doses, MI #3 measured in plasma. It is filed as in vivo. The note with it: male CD-1 mice, SQ 20 mg/kg suspension, MI Parent #3 measured in plasma. On the procedure: FIG. 1 is a graph of concentration vs. time from plasma of MI #3 in ng/mL vs time in hours following subcutaneous (SQ) doses of MI3 # or the prodrugs from Examples 3, 4, and 5 as suspensions in 1% Kolliphor P 188/2% PEG 3350/3.5% Mannitol/93.5% water at 20 mg/kg to male CD-1 mice. […] Exposure of Parent MI #3 decreased 23-fold, 16-fold, and 3-fold after administration of Example 3, 4 and 5, respectively. The presence of the prodrugs was not observed in plasma. Although the exposure is lower than when dosed with parent itself, the half-life of Parent MI #3 is longer after administration of all three prodrugs showing the potential to be useful for less frequent dosing.
Subcutaneous (SQ) doses of each of the compounds from Examples 3, 4, and 5 as suspensions (Dose conc. 4 mg/mL, Dose volume 5 mL/kg) in 1% Kolliphor P 188/2% PEG 3350/3.5% Mannitol/93.5% water at 20 mg/kg to 3 male CD-1 mice (Cr1:CD1 (ICR)) Charles River Laboratories, 25-30gs at dose initiation, age as appropriate for weight. The concentration of Parent MI #3 and prodrugs were measured in the plasma of animals of all three groups at time points of 0.5, 1, 3, 5, 7, 24, 48, 72, 96, 120, 144, and 168 hours. The collection conditions were K2EDTA and the volume/timepoint was 30 μL. The presence of the prodrugs was not observed in plasma for any group.
LC-MS/MS methods were developed to quantitate both prodrugs and parent in plasma. The samples were analyzed in duplicate. Two sets of standard curves and three levels of QCs were run in each plate. Both the standards and QCs were run in duplicate. The table below is a summary of the protocols and guidance that was supplied to the scientists who carried out the experiments.

A short description of data set [3]: MI Parent #3 mouse PK, IV solution. The following applies: dose 1 (printed mg). It is filed as in vivo.
Data set [4] can be described thus: Single dose mouse PK study, oral dose of prodrug or parent, parent MI #3 measured. The data set is classed as in vivo. The following applies: male CD1 mice, PO 5 mg/kg. How it is done:
A single dose mouse PK study was conducted following an oral dose of the prodrug that was prepared as Example 1, being dosed and measuring parent maturation inhibitor (MI) #3, and compared to PK parameters with Parent MI #3 being dosed in male CD1 mice. In the current study, the formulation for parent MI #3 was 0.5% Methocel A4M:0.1% Tween 80:99.4% water. For the prodrug of Example 1, the formulation was 2% Dimethylacetamide:10% ethanol: 87.5% PEG 400:0.5% Tween 80.
Following oral administration of the prodrug, all prodrug concentrations at all timepoints were BLQ. As shown in the table below the exposure of the parent MI #3 obtained from dosing the prodrug was higher than that seen with dosing a crystalline suspension of the parent MI #3.

In data set [5] the test system is HIV. The note with it: cited from earlier work.

Take `C=C(C)[C@@H]1CC[C@]2(NCCN3CCS(=O)(=O)CC3)CC[C@]3(C)[C@H](CC[C@@H]4[C@@]5(C)CC=C(C6=CC[C@@](CF)(C(=O)OCOC(=O)CCCCCCC)CC6)C(C)(C)[C@@H]5CC[C@]43C)[C@@H]12` [Example 19, (Octanoyloxy)methyl (R)-4-((1R,3aS,5aR,5bR,7aR,11aS,11bR,13aR,13bR)-3a-((2-(1,1-dioxidothiomorpholino)ethyl)amino)-5a,5b,8,8,11a-pentamethyl-1-(prop-1-en-2-yl)-2,3,3a,4,5,5a,5b,6,7,7a,8,11,11a,11b,12,13,13a,13b-octadecahydro-1H-cyclopenta[a]chrysen-9-yl)-1-(fluoromethyl)cyclohex-3-ene-1-carboxylate]: in data set [1], the “AUCINF (day)” value is 1393.

Consider `C=C(C)[C@@H]1CC[C@]2(NCC[C@]3(O)CC[C@@H](S(C)(=O)=O)CC3)CC[C@]3(C)[C@H](CC[C@@H]4[C@@]5(C)CC=C(C6=CC[C@@](COc7ncccc7C#N)(C(=O)O)CC6)C(C)(C)[C@@H]5CC[C@]43C)[C@@H]12` [Parent MI #3, (S)-1-(((3-cyanopyridin-2-yl)oxy)methyl)-4-((1R,3aS,5aR,5bR,7aR,11aS,11bR,13aR,13bR)-3a-((2-((1s,4R)-1-hydroxy-4-(methylsulfonyl)cyclohexyl)ethyl)amino)-5a,5b,8,8,11a-pentamethyl-1-(prop-1-en-2-yl)-2,3,3a,4,5,5a,5b,6,7,7a,8,11,11a,11b,12,13,13a,13b-octadecahydro-1H-cyclopenta[a]chrysen-9-yl)cyclohex-3-enecarboxylic acid], for which, in data set [2], the “%AUCextra” value turned out to be 12.3%, the AUClast was 449442 ng·h/mL, the AUCtot came to 515257 ng·h/mL and the Bioavailability is listed as 35 % F. For the same compound, in data set [2], the Cmax came out at 6563 ng/mL and the “t(1/2)” value is recorded as 58.3 h. For the same compound, in data set [3], the “%AUCextra” value stood at 24.8%, the AUClast worked out at 64197 ng·h/mL, the AUCtot was found to be 87808 ng·h/mL and the Clearance is 0.20 mL/min/kg. In data set [3], the mean residence time (MRT) was determined as 22.2 h, the volume of distribution (Vss) is on record as 0.25 L/kg and the “t(1/2)” value was found to be 16.3 h. In data set [4], the AUC0-24h norm is reported as 3.7 μg/mL *h/dose, the AUC0-last came out at 18000 ng·h/mL, the Bioavailability is reported as 5.0 % F and the C24 came out at 0.03 µg/mL. Further, in data set [4], the highest concentration (Cmax) worked out at 1300 ng/mL and the Tmax is recorded as 4.7 h.

`C=C(C)[C@@H]1CC[C@]2(NCCN3CCS(=O)(=O)CC3)CC[C@]3(C)[C@H](CC[C@@H]4[C@@]5(C)CC=C(C6=CC[C@@](CF)(C(=O)OCOC(=O)CCCCC)CC6)C(C)(C)[C@@H]5CC[C@]43C)[C@@H]12` [Example 18, (Hexanoyloxy)methyl (R)-4-((1R,3aS,5aR,5bR,7aR,11aS,11bR,13aR,13bR)-3a-((2-(1,1-dioxidothiomorpholino)ethyl)amino)-5a,5b,8,8,11a-pentamethyl-1-(prop-1-en-2-yl)-2,3,3a,4,5,5a,5b,6,7,7a,8,11,11a,11b,12,13,13a,13b-octadecahydro-1H-cyclopenta[a]chrysen-9-yl)-1-(fluoromethyl)cyclohex-3-ene-1-carboxylate]: in data set [1], the “AUCINF (day)” value was 2100.

Turning to `C=C(C)[C@@H]1CC[C@]2(C(=O)O)CC[C@]3(C)[C@H](CC[C@@H]4[C@@]5(C)CC[C@H](OC(=O)CC(C)(C)C(=O)O)C(C)(C)[C@@H]5CC[C@]43C)[C@@H]12` [Bevirimat], the “reduction of HIV viral load (mean)” value in data set [5] (patients with trough levels >=20 μg/mL and no key baseline Gag polymorphisms at Q369, V370 or T371) is on record as 1.3 log10/mL. Further, the “viral load reduction vs patients without Gag polymorphisms” value in data set [5] (users with Gag polymorphisms at Q369, V370 or T371) is listed as “significantly lower load reductions”.

On to `C=C(C)[C@@H]1CC[C@]2(NCCN3CCS(=O)(=O)CC3)CC[C@]3(C)[C@H](CC[C@@H]4[C@@]5(C)CC=C(C6=CC[C@@](CF)(C(=O)OCOC(=O)C(C)C)CC6)C(C)(C)[C@@H]5CC[C@]43C)[C@@H]12` [Example 21, (Isobutyryloxy)methyl (R)-4-((1R,3aS,5aR,5bR,7aR,11aS,11bR,13aR,13bR)-3a-((2-(1,1-dioxidothiomorpholino)ethyl)amino)-5a,5b,8,8,11a-pentamethyl-1-(prop-1-en-2-yl)-2,3,3a,4,5,5a,5b,6,7,7a,8,11,11a,11b,12,13,13a,13b-octadecahydro-1H-cyclopenta[a]chrysen-9-yl)-1-(fluoromethyl)cyclohex-3-ene-1-carboxylate], for which the “AUCINF (day)” value in data set [1] came to 1682.
